In patent publication US20100021427A1, “Use of Antiviral Peptides For Treatment of Infections Caused by Drug-Resistant HIV” (Tianjin FusoGen Pharmaceuticals, Inc., priority 2008, published 2010):

Legend:
N36 [1] = biological target: T1, N36 (Human immunodeficiency virus type 1 group M subtype B, UniProt P04578); assay: Circular dichroism (CD) spectroscopy and thermal denaturation of peptide/N36 mixtures; format: binding, HIV
T1 construct: protease-resistant N- and C-peptides from gp41
Description: Circular dichroism (CD) spectroscopy was performed following the method previously described in He, Y., et al. J.BIOL.CHEM. 2007; 282: 25631-25639. […] The final peptide concentration was 10 μM in 50 mM sodium phosphate and 150 mM NaCl, pH 7.2. The N-, C-peptides as well as FS-01 by itself was also tested. CD spectra of these individual peptides and peptide mixtures were acquired on Jasco spectropolarimeter (Model J-715, Jasco Inc., Japan) at room temperature using a 5.0-nm band with, 0.1-nm resolution, 0.1-cm path length, 4.0-s response time, and a 50-nm/min scanning speed. The spectra were corrected by subtraction of a blank corresponding to the solvent. The a-helical content was calculated from the CD signal by dividing the mean residue ellipticity at 222 nm by the value expected for 100% helix formation (−33,000 degrees cm^2 dmol^−1) according to existing literature (Shu, W., et al. BIOCHEMISTRY 2000; 39: 1634-1642; Chen, Y. H., et al. BIOCHEMISTRY 1974; 13: 3350-3359). Thermal denaturation was monitored at 222 nm by applying a thennal gradient of 2° C./min in the range of 4-98° C. To determine the reversibility, the peptide mixtures were then cooled to 4° C. and kept in the CD chamber at 4° C. for 30 min, followed by monitoring of thermal denaturation as described above. The melting curve was smoothened, and the midpoint of the thermal unfolding transition (Tm) values was calculated using Jasco software utilities.

N36 [2] = biological target: T1, N36; assay: Native polyacrylamide gel electrophoresis (N-PAGE), 6-HB formation; format: binding, HIV; conditions: 40 μM, 37° C. 30 min
Description: Native polyacrylamide gel electrophoresis (N-PAGE) was carried out to determine the 6-HB formation between the N- and C-peptides using the described previously (Liu, S., et al. PEPTIDES 2003, 24:1303-1313). […] The mixture was loaded onto a 10×1.0-cm precast 18% Tris-glycine gels (Invitrogen, Carlsbad, Calif.) at 25 μL/per well with an equal volume of Tris-glycine native sample buffer (Invitrogen). Gel electrophoresis was carried out with 125 V constant voltage at room temperature for 2 h. The gel was then stained with Coomassie blue and imaged with a FluorChem 8800 Imaging System (Alpha Innotech Corp., San Leandro, Calif.).

[3] = biological target: T2, 6-HB between C34-biotin and N36 (Human immunodeficiency virus type 1 group M subtype B, UniProt P04578); assay: ELISA (mAb NC-1) of inhibition of 6-helix bundle formation; format: biochemical, HIV
T2 construct: protease-resistant N- and C-peptides from gp41
T2 sequence (P04578 546-581): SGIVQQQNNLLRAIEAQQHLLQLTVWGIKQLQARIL
Description: A 96-well polystyrene plate (Costar, Corning Inc., Corning, N.Y.) was coated with a 6-HB-specific monoclonal antibody NC-1 IgG (4 μg/mL in 0.1 M Tris, pH 8.8). […] The mixture was then added to the NC-1-coated plate, followed by incubation at room temperature for 30 min and washing with a washing buffer (PBS containing 0.1 % Tween 20) three times. Then streptavidin-labeled horseradish peroxidase (Invitrogen) and the substrate 3,3′,5,5′-tetramethylbenzidine (Sigma) were added sequentially. Absorbance at 450 nm (A450) was measured using an ELISA reader (Ultra 384, Tecan, Research Triangle Park, N.C.). The percent inhibition by the peptides and the IC50 values were calculated as previously described (Jiang, S. B., et al J.EXP.MED. 1991; 174: 1557-1563).

[4] = tested on: HIV-1IIIB-mediated cell-cell fusion (H9/HIV-1IIIB-infected cells with MT-2 cells); assay: Dye transfer assay of HIV-1 mediated cell-cell fusion; format: cell-based
Description: (§1) A dye transfer assay was used for detection of HIV-1 mediated cell-cell fusion as previously described in (Jiang, S., et al. Antimicrob.Agents Chemother. 2004; 48: 4349-4359. In brief, H9/HIV-1IIIB-infected cells were labeled with a fluorescent reagent, Calcein-AM (Molecular Probes, Inc., Eugene, OR) and then incubated with MT-2 cells (ratio =1:5) in 96-well plates at 37° C. for 2 h in the presence or absence of peptides. The fused and unfused calcein-labeled HIV-1-infected cells were counted under an inverted fluorescence microscope (Zeiss, Germany) with an eyepiece micrometer disc. The inhibition percent of cell-cell fusion and the IC50 values were calculated as described. […] The inhibitory activity of FS-01 on HIV-1-mediated infection was conducted too.

HIV-1IIIB = assay: HIV-1IIIB-mediated infection of MT-2 cells; format: cell-based
Description: as §1
Two T20-sensitive and five T20-resistant strains with well defined genetic mutations conferring the resistance were used in this experiment (Rimsky, L. T., et al. J.VIROL. 1998; 72: 986-993). Briefly, 1×10^4 MT-2 cells were infected with HIV-1 isolates at 100 TCID50 (50% tissue culture infective dose) in 200 μl RPMI 1640 medium containing 10% FBS in the presence or absence of FS-01 at graded concentrations overnight. Then the culture supernatants were removed and fresh media without FS-01 were added. […]

92TH009 (clade E, R5) = assay: Primary HIV-1 isolate infection of PBMC, p24 ELISA; format: cell-based; conditions: p24 production, 7 days post infection
Description: (§2) The inhibitory activity of FS-01 against primary HIV-1 isolates was determined as previously described in (Jiang, S., et al. ANTIMICROB. AGENTS CHEMOTHER. 2004; 48: 4349-4359. The peripheral blood mononuclear cells (PBMC) were isolated from the blood of healthy donors using a standard density gradient (Histopaque-1077, Sigma) centrifugation. The cells were plated in 75-cm plastic flasks and incubated at 37° C. for 2 h. The nonadherent cells were collected and resuspended at 5×10^5/mL in RPMI 1640 medium containing 10% FBS, 5 μg of phytohemagglutinin (PHA)/mL, and 100 U of interleukin-2/mL, followed by incubation at 37° C. for 3 days. The PHA-stimulated cells were infected with the corresponding primary HIV-1 isolates at a multiplicity of infection (MOI) of 0.01 in the absence or presence of FS-01 at graded concentrations. Culture media were changed every 3 days. The supernatants were collected 7 days post infection and tested for p24 antigen by ELISA. The percent inhibition of p24 production and IC50/IC90 values were calculated.

92UG001 (clade D, X4R5) = assay: Primary HIV-1 isolate infection of PBMC, p24 ELISA; format: cell-based; conditions: p24 production, 7 days post infection
Description: as §2

92US657 (clade B, R5) = assay: Primary HIV-1 isolate infection of PBMC, p24 ELISA; format: cell-based; conditions: p24 production, 7 days post infection
Description: as §2

93BR020 (clade F, X4R5) = assay: Primary HIV-1 isolate infection of PBMC, p24 ELISA; format: cell-based; conditions: p24 production, 7 days post infection
Description: as §2

93IN101 (clade C, R5) = assay: Primary HIV-1 isolate infection of PBMC, p24 ELISA; format: cell-based; conditions: p24 production, 7 days post infection
Description: as §2

94UG103 (clade A, X4R5) = assay: Primary HIV-1 isolate infection of PBMC, p24 ELISA; format: cell-based; conditions: p24 production, 7 days post infection
Description: as §2

NL4-3 (N42S) = format: cell-based, HIV-1; conditions: T20-sensitive (S) virus, MT-2 cells, p24, fourth day; read-out: IC50 (Mean ± SD)
Description: (§3) Two T20-sensitive and five T20-resistant strains with well defined genetic mutations conferring the resistance were used in this experiment (Rimsky, L. T., et al. J.VIROL. 1998; 72: 986-993). Briefly, 1×10^4 MT-2 cells were infected with HIV-1 isolates at 100 TCID50 (50% tissue culture infective dose) in 200 μl RPMI 1640 medium containing 10% FBS in the presence or absence of FS-01 at graded concentrations overnight. Then the culture supernatants were removed and fresh media without FS-01 were added. On the fourth day post-infection, 100 μl of culture supernatants were collected from each well, mixed with equal volumes of 5% Triton X-100 and assayed for p24 antigen by ELISA.

NL4-3 (N42T/N43K) = format: cell-based, HIV-1; conditions: T20-resistant (R) virus, MT-2 cells, p24, fourth day; read-out: IC50 (Mean ± SD)
Description: as §3

NL4-3 (V38A) = format: cell-based, HIV-1; conditions: T20-resistant (R) virus, MT-2 cells, p24, fourth day; read-out: IC50 (Mean ± SD)
Description: as §3

NL4-3 (V38A/N42D) = format: cell-based, HIV-1; conditions: T20-resistant (R) virus, MT-2 cells, p24, fourth day; read-out: IC50 (Mean ± SD)
Description: as §3

NL4-3 (V38A/N42T) = format: cell-based, HIV-1; conditions: T20-resistant (R) virus, MT-2 cells, p24, fourth day; read-out: IC50 (Mean ± SD)
Description: as §3

NL4-3 (V38E/N42S) = format: cell-based, HIV-1; conditions: T20-resistant (R) virus, MT-2 cells, p24, fourth day; read-out: IC50 (Mean ± SD)
Description: as §3

NL4-3 (parental) = format: cell-based, HIV-1; conditions: T20-sensitive (S) virus, MT-2 cells, p24, fourth day; read-out: IC50 (Mean ± SD)
Description: as §3

POPC LUVs [5] = assay: Isothermal titration calorimetry (ITC), peptide-lipid binding; conditions: LUVs injected into peptide solution
Description: (§4) So, the POPC LUV liposome system was employing to investigate the binding activity of FS-01 to lipid membranes. Large unilamellar vesicles (LUVs) of 1-palmitoyl-2-oleoyl-sn-glycero-3-phosphocholine (POPC) liposome were prepared as previously described (Liu, S., et al. J.BIOL.CHEM. 2007; 282: 9612-9620). Briefly, 20 mg of POPC stock solution was dried under a stream of nitrogen and stored in vacuum overnight to completely remove trace amounts of organic solvent. The dried lipid film was suspended by vortexing in 2 mL PBS buffer. The resultant multilamellar vesicle suspension was freeze-thawed for 5 cycles and then successively extruded through two stacked polycarbonate filters (0.1 μm) 13 times using an Avanti miniextruder.
Solutions were degassed under vacuum prior to use. LUVs of POPC were injected into the chamber containing a peptide solution or buffer only (as a control). The heats generated in control experiments by injecting lipid vesicles into buffer without a peptide were subtracted from the heats produced in the corresponding peptide-lipid binding experiments. Data acquisition and analyses were performed using MicroCal's Origin software (Version 7.0).

POPC LUVs [6] = assay: Tryptophan fluorescence spectroscopy, peptide-lipid interaction; format: binding; conditions: peptide 10 μM, POPC LUVs 2 mM, excitation 295 nm
Description: as §4
Spectra were baseline-corrected by subtracting blank spectra of the corresponding solutions without peptide.

T1 sequence (P04578 546-581): as above

With “Ac-SWETWEREIENYTRQIYRILEESQEQQDRNERDLLE-NH2 [FS-01]” the “higher melting temperature of FS-01/N36 complex compared to C34/N36 complex” value (N36 [1]) was 10 °C, the “helical content in the presence of N36” value (N36 [1]; CD at 222 nm, equal molar with N36, 10 μM, pH 7.2) was 93% and the “formation of α-helical complexes with N36 (CD minimum at 208 and 222 nm)” value (N36 [1]; equal molar with N36, 10 μM) was “formation of secondary α-helical structure”. The “melting temperature (Tm) of complex with N36” value (N36 [1]; thermal denaturation monitored at 222 nm) was “about 72 °C”, the “6-HB formation with N36 (up-shift of peptide band)” value (N36 [2]) was “able to form 6-HB with N36” and the IC50 [3] was 120 nM. For the same substance, the “fold more active than T20 in inhibiting membrane fusion” value [4] was “about 6 fold”, the IC50 ([4]; 37° C. for 2 h, read-out: IC50, inhibition of cell-cell fusion) was 3.6 nM and the “inhibition of HIV-1IIIB-mediated infection of MT-2 cells, compared with T20” value (HIV-1IIIB) was “more potent”. It also gave an IC50 (92TH009 (clade E, R5); read-out: IC50 (Mean ± SD)) of 210 ± 9.91 nM, an IC90 (92TH009 (clade E, R5); read-out: IC90 (Mean ± SD)) of 619 ± 39 nM and an IC50 (92UG001 (clade D, X4R5); read-out: IC50 (Mean ± SD)) of 11.9 ± 3.01 nM. For the same substance, the IC90 (92UG001 (clade D, X4R5); read-out: IC90 (Mean ± SD)) was 35.7 ± 6.59 nM, the IC50 (92US657 (clade B, R5); read-out: IC50 (Mean ± SD)) was 27.8 ± 8.66 nM and the IC90 (92US657 (clade B, R5); read-out: IC90 (Mean ± SD)) was 212 ± 84 nM. For the same substance, the IC50 (93BR020 (clade F, X4R5); read-out: IC50 (Mean ± SD)) was 12.5 ± 6.76 nM, the IC90 (93BR020 (clade F, X4R5); read-out: IC90 (Mean ± SD)) was 71.6 ± 28.5 nM and the IC50 (93IN101 (clade C, R5); read-out: IC50 (Mean ± SD)) was 34.3 ± 3.21 nM. For the same substance, the IC90 (93IN101 (clade C, R5); read-out: IC90 (Mean ± SD)) was 90.6 ± 6.5 nM, the IC50 (94UG103 (clade A, X4R5); read-out: IC50 (Mean ± SD)) was 3.94 ± 1.29 nM and the IC90 (94UG103 (clade A, X4R5); read-out: IC90 (Mean ± SD)) was 7.43 ± 2.16 nM. For the same substance, the IC50 (NL4-3 (N42S)) was 2.68 ± 0.87 nM, the IC50 (NL4-3 (N42T/N43K)) was 37.8 ± 15.6 nM and the IC50 (NL4-3 (V38A)) was 3.44 ± 0.23 nM. The IC50 (NL4-3 (V38A/N42D)) was 47.8 ± 4.7 nM, the IC50 (NL4-3 (V38A/N42T)) was 30.4 ± 4.36 nM and the IC50 (NL4-3 (V38E/N42S)) was 43.5 ± 3.36 nM. For the same substance, the IC50 (NL4-3 (parental)) was 12.6 ± 1.18 nM, the “binding constant to POPC LUVs” value (POPC LUVs [5]) was “too weak to calculate the binding constant” and the “shift of tryptophan fluorescence spectra in POPC LUVs compared to PBS” value (POPC LUVs [6]) was “did not show remarkable fluorescence spectra shift”.
